{
  "source": "ChEMBL document CHEMBL1138234",
  "about": "“Planarity and constraint of the carbonyl groups in 1,2-diones are determinants for selective inhibition of human carboxylesterase 1” (J Med Chem, 2007)",
  "key": {"[1]": {"molecular_target": "Acetylcholinesterase (Homo sapiens, UniProt P22303)", "sequence (P22303 whole entry)": "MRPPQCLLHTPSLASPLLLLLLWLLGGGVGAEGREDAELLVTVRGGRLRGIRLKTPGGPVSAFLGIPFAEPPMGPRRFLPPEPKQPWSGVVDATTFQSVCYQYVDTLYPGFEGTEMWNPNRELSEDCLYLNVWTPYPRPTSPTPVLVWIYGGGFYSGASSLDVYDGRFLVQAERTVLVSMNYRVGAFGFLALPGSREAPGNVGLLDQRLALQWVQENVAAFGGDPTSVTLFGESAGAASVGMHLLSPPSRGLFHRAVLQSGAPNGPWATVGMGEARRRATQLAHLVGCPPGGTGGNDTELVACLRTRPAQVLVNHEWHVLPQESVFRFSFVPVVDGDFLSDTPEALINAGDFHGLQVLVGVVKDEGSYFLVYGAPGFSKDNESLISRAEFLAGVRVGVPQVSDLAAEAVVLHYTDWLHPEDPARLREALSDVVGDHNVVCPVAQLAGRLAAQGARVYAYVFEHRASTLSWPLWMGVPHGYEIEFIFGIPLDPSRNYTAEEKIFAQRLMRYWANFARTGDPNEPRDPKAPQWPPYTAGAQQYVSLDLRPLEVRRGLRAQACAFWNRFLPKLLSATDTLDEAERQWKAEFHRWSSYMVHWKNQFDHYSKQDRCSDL", "experiment": "Inhibition of human acetylcholinesterase 1"}, "[2]": {"experiment": "Inhibition of human intestinal carboxylesterase"}, "[3]": {"molecular_target": "Cholinesterase (Homo sapiens, UniProt P06276)", "sequence (P06276 whole entry)": "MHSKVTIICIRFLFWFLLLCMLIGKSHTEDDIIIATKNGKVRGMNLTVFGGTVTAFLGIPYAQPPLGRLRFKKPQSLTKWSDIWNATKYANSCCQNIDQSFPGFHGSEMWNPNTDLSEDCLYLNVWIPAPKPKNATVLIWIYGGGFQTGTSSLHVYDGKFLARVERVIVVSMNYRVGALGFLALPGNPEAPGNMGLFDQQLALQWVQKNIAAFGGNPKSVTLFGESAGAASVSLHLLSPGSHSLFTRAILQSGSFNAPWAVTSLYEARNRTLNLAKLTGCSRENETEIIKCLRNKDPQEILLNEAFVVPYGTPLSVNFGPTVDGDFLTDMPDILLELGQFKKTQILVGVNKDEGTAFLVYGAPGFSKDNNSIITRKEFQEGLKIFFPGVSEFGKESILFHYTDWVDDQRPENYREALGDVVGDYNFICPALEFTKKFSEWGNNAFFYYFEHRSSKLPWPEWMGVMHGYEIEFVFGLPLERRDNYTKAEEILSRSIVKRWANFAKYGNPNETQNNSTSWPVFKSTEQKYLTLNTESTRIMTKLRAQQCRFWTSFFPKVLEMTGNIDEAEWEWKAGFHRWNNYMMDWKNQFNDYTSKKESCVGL", "experiment": "Inhibition of human butyrylcholinesterase"}, "[4]": {"molecular_target": "T1, Liver carboxylesterase 1 (Homo sapiens, UniProt P23141)", "T1 sequence (P23141 whole entry)": "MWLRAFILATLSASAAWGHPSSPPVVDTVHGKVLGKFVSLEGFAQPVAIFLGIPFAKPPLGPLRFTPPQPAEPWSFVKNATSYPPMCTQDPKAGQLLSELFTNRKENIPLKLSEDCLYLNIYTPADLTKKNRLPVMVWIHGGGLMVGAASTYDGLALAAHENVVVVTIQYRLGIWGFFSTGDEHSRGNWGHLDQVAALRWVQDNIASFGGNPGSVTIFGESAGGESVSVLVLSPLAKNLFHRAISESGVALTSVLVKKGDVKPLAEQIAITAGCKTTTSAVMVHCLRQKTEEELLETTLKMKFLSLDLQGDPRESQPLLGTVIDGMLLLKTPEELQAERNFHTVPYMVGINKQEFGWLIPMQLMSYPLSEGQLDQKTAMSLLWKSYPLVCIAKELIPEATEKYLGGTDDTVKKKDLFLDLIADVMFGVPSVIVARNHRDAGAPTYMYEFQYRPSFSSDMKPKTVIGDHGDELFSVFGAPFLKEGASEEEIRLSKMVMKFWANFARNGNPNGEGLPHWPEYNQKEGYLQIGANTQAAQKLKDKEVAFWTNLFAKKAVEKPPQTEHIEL", "experiment": "Inhibition of human carboxylesterase 1"}},
  "data": [
    {"smiles": "O=C1C(=O)c2ccc([N+](=O)[O-])c3c([N+](=O)[O-])ccc1c23", "values": [
      {"measurement": "Ki", "setting": "[1]", "value": 0.903, "unit": "µM"},
      {"measurement": "Ki", "setting": "[2]", "value": 0.62, "unit": "µM"},
      {"measurement": "Ki", "setting": "[3]", "value": 3.1, "unit": "µM"},
      {"measurement": "Ki", "setting": "[4]", "value": 0.57, "unit": "µM"}
    ]},
    {"smiles": "O=C1C(=O)c2cccc3c2N(CCC3)C1=O", "values": [
      {"measurement": "Ki", "setting": "[1]", "value": "> 100", "unit": "µM"},
      {"measurement": "Ki", "setting": "[2]", "value": "> 100", "unit": "µM"},
      {"measurement": "Ki", "setting": "[3]", "value": "> 100", "unit": "µM"},
      {"measurement": "Ki", "setting": "[4]", "value": 5.38, "unit": "µM"}
    ]},
    {"smiles": "O=C1C(=O)c2ccccc2-c2ccccc21", "note": "[9,10-PHENANTHRENEQUINONE]", "values": [
      {"measurement": "Ki", "setting": "[1]", "value": "> 100", "unit": "µM"},
      {"measurement": "Ki", "setting": "[3]", "value": 0.19, "unit": "µM"},
      {"measurement": "Ki", "setting": "[4]", "value": 0.0025, "unit": "µM"}
    ]},
    {"smiles": "CC1(C)[C@@H]2CC[C@]1(C)C(=O)C2=O", "note": "(racemic)", "values": [
      {"measurement": "Ki", "setting": "[1]", "value": "> 100", "unit": "µM"},
      {"measurement": "Ki", "setting": "[2]", "value": "> 100", "unit": "µM"},
      {"measurement": "Ki", "setting": "[3]", "value": "> 100", "unit": "µM"},
      {"measurement": "Ki", "setting": "[4]", "value": "> 100", "unit": "µM"}
    ]},
    {"smiles": "O=C1C(=O)c2cccnc2-c2ncccc21", "values": [
      {"measurement": "Ki", "setting": "[1]", "value": "> 100", "unit": "µM"},
      {"measurement": "Ki", "setting": "[2]", "value": "> 100", "unit": "µM"},
      {"measurement": "Ki", "setting": "[3]", "value": "> 100", "unit": "µM"},
      {"measurement": "Ki", "setting": "[4]", "value": 5.4, "unit": "µM"}
    ]},
    {"smiles": "O=C1C(=O)N2CCCc3cccc1c32", "values": [
      {"measurement": "Ki", "setting": "[1]", "value": "> 100", "unit": "µM"},
      {"measurement": "Ki", "setting": "[2]", "value": 4.13, "unit": "µM"},
      {"measurement": "Ki", "setting": "[3]", "value": "> 100", "unit": "µM"},
      {"measurement": "Ki", "setting": "[4]", "value": 1.54, "unit": "µM"}
    ]},
    {"smiles": "O=C(C(=O)c1ccc([N+](=O)[O-])cc1)c1ccc([N+](=O)[O-])cc1", "values": [
      {"measurement": "Ki", "setting": "[1]", "value": "> 100", "unit": "µM"},
      {"measurement": "Ki", "setting": "[2]", "value": 0.47, "unit": "µM"},
      {"measurement": "Ki", "setting": "[3]", "value": "> 100", "unit": "µM"},
      {"measurement": "Ki", "setting": "[4]", "value": 9.8, "unit": "µM"}
    ]},
    {"smiles": "COc1ccccc1C(=O)C(=O)c1ccccc1OC", "values": [
      {"measurement": "Ki", "setting": "[2]", "value": "> 100", "unit": "µM"},
      {"measurement": "Ki", "setting": "[3]", "value": "> 100", "unit": "µM"},
      {"measurement": "Ki", "setting": "[4]", "value": "> 100", "unit": "µM"}
    ]},
    {"smiles": "COc1ccc(C(=O)C(=O)c2ccc(C(=O)O)cc2)cc1", "values": [
      {"measurement": "Ki", "setting": "[1]", "value": "> 100", "unit": "µM"},
      {"measurement": "Ki", "setting": "[3]", "value": "> 100", "unit": "µM"}
    ]},
    {"smiles": "O=C1C(=O)c2cccc3cccc1c23", "note": "[ACENAPHTHOQUINONE]", "values": [
      {"measurement": "Ki", "setting": "[1]", "value": "> 100", "unit": "µM"},
      {"measurement": "Ki", "setting": "[3]", "value": 2.97, "unit": "µM"},
      {"measurement": "Ki", "setting": "[4]", "value": 0.031, "unit": "µM"}
    ]},
    {"smiles": "O=C1C(=O)c2c3ccccc3cc3cccc1c23", "values": [
      {"measurement": "Ki", "setting": "[1]", "value": "> 100", "unit": "µM"},
      {"measurement": "Ki", "setting": "[2]", "value": 0.0077, "unit": "µM"},
      {"measurement": "Ki", "setting": "[3]", "value": "> 100", "unit": "µM"},
      {"measurement": "Ki", "setting": "[4]", "value": 0.0015, "unit": "µM"}
    ]},
    {"smiles": "O=C1C(=O)c2sccc2-c2ccsc21", "values": [
      {"measurement": "Ki", "setting": "[1]", "value": "> 100", "unit": "µM"},
      {"measurement": "Ki", "setting": "[2]", "value": 0.85, "unit": "µM"},
      {"measurement": "Ki", "setting": "[3]", "value": "> 100", "unit": "µM"},
      {"measurement": "Ki", "setting": "[4]", "value": 0.15, "unit": "µM"}
    ]},
    {"smiles": "O=C1C=Cc2ccccc2C1=O", "note": "[1,2-NAPHTHOQUINONE]", "values": [
      {"measurement": "Ki", "setting": "[1]", "value": 0.32, "unit": "µM"},
      {"measurement": "Ki", "setting": "[2]", "value": 2.4, "unit": "µM"},
      {"measurement": "Ki", "setting": "[3]", "value": 2.29, "unit": "µM"},
      {"measurement": "Ki", "setting": "[4]", "value": 0.93, "unit": "µM"}
    ]},
    {"smiles": "O=C1C(=O)c2cc([N+](=O)[O-])ccc2-c2ccccc21", "values": [
      {"measurement": "Ki", "setting": "[1]", "value": 0.85, "unit": "µM"},
      {"measurement": "Ki", "setting": "[2]", "value": 0.107, "unit": "µM"},
      {"measurement": "Ki", "setting": "[3]", "value": 1.67, "unit": "µM"},
      {"measurement": "Ki", "setting": "[4]", "value": 0.0159, "unit": "µM"}
    ]},
    {"smiles": "O=C1C(=O)c2ccccc2CCc2ccccc21", "values": [
      {"measurement": "Ki", "setting": "[1]", "value": "> 100", "unit": "µM"},
      {"measurement": "Ki", "setting": "[2]", "value": 6.15, "unit": "µM"},
      {"measurement": "Ki", "setting": "[3]", "value": "> 100", "unit": "µM"},
      {"measurement": "Ki", "setting": "[4]", "value": 2.98, "unit": "µM"}
    ]},
    {"smiles": "O=C(C(=O)C1CCCCC1)C1CCCCC1", "values": [
      {"measurement": "Ki", "setting": "[1]", "value": "> 100", "unit": "µM"},
      {"measurement": "Ki", "setting": "[2]", "value": 0.005, "unit": "µM"},
      {"measurement": "Ki", "setting": "[3]", "value": "> 100", "unit": "µM"},
      {"measurement": "Ki", "setting": "[4]", "value": 0.072, "unit": "µM"}
    ]},
    {"smiles": "O=C1Cc2ccccc2C1=O", "values": [
      {"measurement": "Ki", "setting": "[1]", "value": "> 100", "unit": "µM"},
      {"measurement": "Ki", "setting": "[2]", "value": 5.47, "unit": "µM"},
      {"measurement": "Ki", "setting": "[3]", "value": 2.63, "unit": "µM"},
      {"measurement": "Ki", "setting": "[4]", "value": 5.24, "unit": "µM"}
    ]},
    {"smiles": "CCOc1ccc(C(=O)C(=O)c2ccc(OCC)cc2)cc1", "values": [
      {"measurement": "Ki", "setting": "[1]", "value": "> 100", "unit": "µM"},
      {"measurement": "Ki", "setting": "[2]", "value": 1.42, "unit": "µM"},
      {"measurement": "Ki", "setting": "[3]", "value": "> 100", "unit": "µM"},
      {"measurement": "Ki", "setting": "[4]", "value": "> 100", "unit": "µM"}
    ]},
    {"smiles": "Cc1cc(C)c(C(=O)C(=O)c2c(C)cc(C)cc2C)c(C)c1", "values": [
      {"measurement": "Ki", "setting": "[1]", "value": "> 100", "unit": "µM"},
      {"measurement": "Ki", "setting": "[2]", "value": 4.04, "unit": "µM"},
      {"measurement": "Ki", "setting": "[3]", "value": "> 100", "unit": "µM"},
      {"measurement": "Ki", "setting": "[4]", "value": "> 100", "unit": "µM"}
    ]}
  ]
}
